Test results published in the supplement of paper PMC13207355.

How the values were obtained:
Settings in all cases: exposure time: 72 h
E21 [1] = patient-derived glioblastoma stem cells of mesenchymal subtype; assay: surviving fraction (nuclei count normalised to DMSO); higher = more cells surviving (less toxic)
E13 [2] = patient-derived glioblastoma stem cells of classical subtype; assay: as above
FT3469 [3] = normal neural stem cell line; assay: as above
E34 [4] = patient-derived glioblastoma stem cells of proneural subtype; assay: as above
E28 [5] = patient-derived glioblastoma stem cells of classical subtype; assay: as above
E31 [6] = patient-derived glioblastoma stem cells of proneural subtype; assay: as above
E57 [7] = patient-derived glioblastoma stem cells of mesenchymal subtype; assay: as above
E21 [8] = assay: phenotypic distance (Euclidean, principal components) from DMSO controls (arbitrary units); higher = stronger morphological change
E13 [9] = assay: as above
FT3469 [10] = assay: as above
E34 [11] = assay: as above
E28 [12] = assay: as above
E31 [13] = assay: as above
E57 [14] = assay: as above
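Throughout, for phenotypic distance (Euclidean, principal components) from DMSO controls: cell Painting imaging in 384-well plates, CellProfiler features reduced to at least 20 principal components, Euclidean distance versus same-plate DMSO vehicle wells (0.1% v/v), median over six images per well.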
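Throughout, for surviving fraction (nuclei count normalised to DMSO): nuclei counted by high-content imaging of Hoechst-stained cells in laminin-coated 384-well plates, relative to 0.1% DMSO vehicle wells, with staurosporine as cell-death control.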

Structure (SMILES): CC(=O)OC[C@H]1O[C@@H]([S-])[C@H](OC(C)=O)[C@@H](OC(C)=O)[C@@H]1OC(C)=O.CCP(CC)CC.[Au+] [Auranofin]
- surviving fraction (E21 [1]; 4.1 nM): 0.997
- surviving fraction (E21 [1]; 12.3 nM): 1
- surviving fraction (E21 [1]; 37 nM): 1.02
- surviving fraction (E21 [1]; 111.1 nM): 0.947
- surviving fraction (E21 [1]; 333.3 nM): 0.979
- surviving fraction (E21 [1]; 1000 nM): 0.84
- surviving fraction (E21 [1]; 3000 nM): 0.255
- surviving fraction (E13 [2]; 4.1 nM): 0.841
- surviving fraction (E13 [2]; 12.3 nM): 1.05
- surviving fraction (E13 [2]; 37 nM): 1.04
- surviving fraction (E13 [2]; 111.1 nM): 1.09
- surviving fraction (E13 [2]; 333.3 nM): 0.968
- surviving fraction (E13 [2]; 1000 nM): 0.851
- surviving fraction (E13 [2]; 3000 nM): 0.227
- surviving fraction (FT3469 [3]; 4.1 nM): 1.13
- surviving fraction (FT3469 [3]; 12.3 nM): 1.02
- surviving fraction (FT3469 [3]; 37 nM): 0.955
- surviving fraction (FT3469 [3]; 111.1 nM): 0.76
- surviving fraction (FT3469 [3]; 333.3 nM): 0.898
- surviving fraction (FT3469 [3]; 1000 nM): 0.909
- surviving fraction (FT3469 [3]; 3000 nM): 0.0719
- surviving fraction (E34 [4]; 4.1 nM): 0.913
- surviving fraction (E34 [4]; 12.3 nM): 1.08
- surviving fraction (E34 [4]; 37 nM): 1.18
- surviving fraction (E34 [4]; 111.1 nM): 1.01
- surviving fraction (E34 [4]; 333.3 nM): 0.92
- surviving fraction (E34 [4]; 1000 nM): 0.993
- surviving fraction (E34 [4]; 3000 nM): 0.269
- surviving fraction (E28 [5]; 4.1 nM): 1.1
- surviving fraction (E28 [5]; 12.3 nM): 0.95
- surviving fraction (E28 [5]; 37 nM): 0.888
- surviving fraction (E28 [5]; 111.1 nM): 0.581
- surviving fraction (E28 [5]; 333.3 nM): 0.418
- surviving fraction (E28 [5]; 1000 nM): 0.177
- surviving fraction (E28 [5]; 3000 nM): 0.00427
- surviving fraction (E31 [6]; 4.1 nM): 1.17
- surviving fraction (E31 [6]; 12.3 nM): 0.911
- surviving fraction (E31 [6]; 37 nM): 1.03
- surviving fraction (E31 [6]; 111.1 nM): 1.13
- surviving fraction (E31 [6]; 333.3 nM): 1.09
- surviving fraction (E31 [6]; 1000 nM): 0.723
- surviving fraction (E31 [6]; 3000 nM): 0.00651
- surviving fraction (E57 [7]; 4.1 nM): 0.985
- surviving fraction (E57 [7]; 12.3 nM): 0.96
- surviving fraction (E57 [7]; 37 nM): 1.12
- surviving fraction (E57 [7]; 111.1 nM): 0.993
- surviving fraction (E57 [7]; 333.3 nM): 0.966
- surviving fraction (E57 [7]; 1000 nM): 0.884
- surviving fraction (E57 [7]; 3000 nM): 0.0901
- phenotypic distance (E21 [8]; 4.1 nM): 0.692
- phenotypic distance (E21 [8]; 12.3 nM): 0.512
- phenotypic distance (E21 [8]; 37 nM): 1.07
- phenotypic distance (E21 [8]; 111.1 nM): 0.632
- phenotypic distance (E21 [8]; 333.3 nM): 1.15
- phenotypic distance (E21 [8]; 1000 nM): 2.27
- phenotypic distance (E21 [8]; 3000 nM): 5.54
- phenotypic distance (E13 [9]; 4.1 nM): 0.698
- phenotypic distance (E13 [9]; 12.3 nM): 0.74
- phenotypic distance (E13 [9]; 37 nM): 0.381
- phenotypic distance (E13 [9]; 111.1 nM): 0.629
- phenotypic distance (E13 [9]; 333.3 nM): 0.569
- phenotypic distance (E13 [9]; 1000 nM): 0.919
- phenotypic distance (E13 [9]; 3000 nM): 5.8
- phenotypic distance (FT3469 [10]; 4.1 nM): 0.766
- phenotypic distance (FT3469 [10]; 12.3 nM): 0.505
- phenotypic distance (FT3469 [10]; 37 nM): 0.606
- phenotypic distance (FT3469 [10]; 111.1 nM): 1.02
- phenotypic distance (FT3469 [10]; 333.3 nM): 0.835
- phenotypic distance (FT3469 [10]; 1000 nM): 1.28
- phenotypic distance (FT3469 [10]; 3000 nM): 5.55
- phenotypic distance (E34 [11]; 4.1 nM): 0.444
- phenotypic distance (E34 [11]; 12.3 nM): 0.588
- phenotypic distance (E34 [11]; 37 nM): 1.03
- phenotypic distance (E34 [11]; 111.1 nM): 0.434
- phenotypic distance (E34 [11]; 333.3 nM): 1.04
- phenotypic distance (E34 [11]; 1000 nM): 0.939
- phenotypic distance (E34 [11]; 3000 nM): 5.66
- phenotypic distance (E28 [12]; 4.1 nM): 1.07
- phenotypic distance (E28 [12]; 12.3 nM): 0.679
- phenotypic distance (E28 [12]; 37 nM): 0.773
- phenotypic distance (E28 [12]; 111.1 nM): 1.25
- phenotypic distance (E28 [12]; 333.3 nM): 1.81
- phenotypic distance (E28 [12]; 1000 nM): 2.9
- phenotypic distance (E28 [12]; 3000 nM): 11.4
- phenotypic distance (E31 [13]; 4.1 nM): 1.04
- phenotypic distance (E31 [13]; 12.3 nM): 0.586
- phenotypic distance (E31 [13]; 37 nM): 0.373
- phenotypic distance (E31 [13]; 111.1 nM): 1.33
- phenotypic distance (E31 [13]; 333.3 nM): 1.16
- phenotypic distance (E31 [13]; 1000 nM): 1.4
- phenotypic distance (E31 [13]; 3000 nM): 8.52
- phenotypic distance (E57 [14]; 4.1 nM): 0.808
- phenotypic distance (E57 [14]; 12.3 nM): 0.759
- phenotypic distance (E57 [14]; 37 nM): 0.726
- phenotypic distance (E57 [14]; 111.1 nM): 0.677
- phenotypic distance (E57 [14]; 333.3 nM): 1.12
- phenotypic distance (E57 [14]; 1000 nM): 2.3
- phenotypic distance (E57 [14]; 3000 nM): 9.6

Structure (SMILES): Cc1cc(Nc2cc(N3CCN(C)CC3)nc(Sc3ccc(NC(=O)C4CC4)cc3)n2)n[nH]1 [Tozasertib]
- surviving fraction (E21 [1]; 4.1 nM): 0.847
- surviving fraction (E21 [1]; 12.3 nM): 0.898
- surviving fraction (E21 [1]; 37 nM): 0.798
- surviving fraction (E21 [1]; 111.1 nM): 0.743
- surviving fraction (E21 [1]; 333.3 nM): 0.288
- surviving fraction (E21 [1]; 1000 nM): 0.215
- surviving fraction (E21 [1]; 3000 nM): 0.224
- surviving fraction (E13 [2]; 4.1 nM): 0.866
- surviving fraction (E13 [2]; 12.3 nM): 0.951
- surviving fraction (E13 [2]; 37 nM): 0.797
- surviving fraction (E13 [2]; 111.1 nM): 0.519
- surviving fraction (E13 [2]; 333.3 nM): 0.467
- surviving fraction (E13 [2]; 1000 nM): 0.391
- surviving fraction (E13 [2]; 3000 nM): 0.413
- surviving fraction (FT3469 [3]; 4.1 nM): 0.899
- surviving fraction (FT3469 [3]; 12.3 nM): 0.836
- surviving fraction (FT3469 [3]; 37 nM): 0.773
- surviving fraction (FT3469 [3]; 111.1 nM): 0.688
- surviving fraction (FT3469 [3]; 333.3 nM): 0.737
- surviving fraction (FT3469 [3]; 1000 nM): 0.697
- surviving fraction (FT3469 [3]; 3000 nM): 0.579
- surviving fraction (E34 [4]; 4.1 nM): 0.814
- surviving fraction (E34 [4]; 12.3 nM): 0.878
- surviving fraction (E34 [4]; 37 nM): 0.929
- surviving fraction (E34 [4]; 111.1 nM): 0.744
- surviving fraction (E34 [4]; 333.3 nM): 0.711
- surviving fraction (E34 [4]; 1000 nM): 0.728
- surviving fraction (E34 [4]; 3000 nM): 0.722
- surviving fraction (E28 [5]; 4.1 nM): 0.971
- surviving fraction (E28 [5]; 12.3 nM): 0.855
- surviving fraction (E28 [5]; 37 nM): 0.81
- surviving fraction (E28 [5]; 111.1 nM): 0.555
- surviving fraction (E28 [5]; 333.3 nM): 0.535
- surviving fraction (E28 [5]; 1000 nM): 0.453
- surviving fraction (E28 [5]; 3000 nM): 0.482
- surviving fraction (E31 [6]; 4.1 nM): 0.944
- surviving fraction (E31 [6]; 12.3 nM): 0.959
- surviving fraction (E31 [6]; 37 nM): 0.697
- surviving fraction (E31 [6]; 111.1 nM): 0.423
- surviving fraction (E31 [6]; 333.3 nM): 0.404
- surviving fraction (E31 [6]; 1000 nM): 0.311
- surviving fraction (E31 [6]; 3000 nM): 0.33
- surviving fraction (E57 [7]; 4.1 nM): 0.966
- surviving fraction (E57 [7]; 12.3 nM): 0.942
- surviving fraction (E57 [7]; 37 nM): 0.963
- surviving fraction (E57 [7]; 111.1 nM): 0.484
- surviving fraction (E57 [7]; 333.3 nM): 0.241
- surviving fraction (E57 [7]; 1000 nM): 0.19
- surviving fraction (E57 [7]; 3000 nM): 0.197
- phenotypic distance (E21 [8]; 4.1 nM): 1.38
- phenotypic distance (E21 [8]; 12.3 nM): 0.727
- phenotypic distance (E21 [8]; 37 nM): 1.05
- phenotypic distance (E21 [8]; 111.1 nM): 2.02
- phenotypic distance (E21 [8]; 333.3 nM): 5.67
- phenotypic distance (E21 [8]; 1000 nM): 6.71
- phenotypic distance (E21 [8]; 3000 nM): 6.04
- phenotypic distance (E13 [9]; 4.1 nM): 1.12
- phenotypic distance (E13 [9]; 12.3 nM): 0.667
- phenotypic distance (E13 [9]; 37 nM): 1.66
- phenotypic distance (E13 [9]; 111.1 nM): 4.34
- phenotypic distance (E13 [9]; 333.3 nM): 4.49
- phenotypic distance (E13 [9]; 1000 nM): 4.52
- phenotypic distance (E13 [9]; 3000 nM): 4.41
- phenotypic distance (FT3469 [10]; 4.1 nM): 0.795
- phenotypic distance (FT3469 [10]; 12.3 nM): 0.771
- phenotypic distance (FT3469 [10]; 37 nM): 0.921
- phenotypic distance (FT3469 [10]; 111.1 nM): 2.37
- phenotypic distance (FT3469 [10]; 333.3 nM): 2.57
- phenotypic distance (FT3469 [10]; 1000 nM): 2.47
- phenotypic distance (FT3469 [10]; 3000 nM): 2.16
- phenotypic distance (E34 [11]; 4.1 nM): 1.42
- phenotypic distance (E34 [11]; 12.3 nM): 0.649
- phenotypic distance (E34 [11]; 37 nM): 0.729
- phenotypic distance (E34 [11]; 111.1 nM): 2.85
- phenotypic distance (E34 [11]; 333.3 nM): 2.79
- phenotypic distance (E34 [11]; 1000 nM): 2.34
- phenotypic distance (E34 [11]; 3000 nM): 2.29
- phenotypic distance (E28 [12]; 4.1 nM): 0.827
- phenotypic distance (E28 [12]; 12.3 nM): 1.02
- phenotypic distance (E28 [12]; 37 nM): 1.05
- phenotypic distance (E28 [12]; 111.1 nM): 2.58
- phenotypic distance (E28 [12]; 333.3 nM): 2.63
- phenotypic distance (E28 [12]; 1000 nM): 2.85
- phenotypic distance (E28 [12]; 3000 nM): 2.36
- phenotypic distance (E31 [13]; 4.1 nM): 0.87
- phenotypic distance (E31 [13]; 12.3 nM): 0.54
- phenotypic distance (E31 [13]; 37 nM): 1.16
- phenotypic distance (E31 [13]; 111.1 nM): 3.12
- phenotypic distance (E31 [13]; 333.3 nM): 2.58
- phenotypic distance (E31 [13]; 1000 nM): 3.12
- phenotypic distance (E31 [13]; 3000 nM): 2.47
- phenotypic distance (E57 [14]; 4.1 nM): 0.542
- phenotypic distance (E57 [14]; 12.3 nM): 0.685
- phenotypic distance (E57 [14]; 37 nM): 0.782
- phenotypic distance (E57 [14]; 111.1 nM): 4.65
- phenotypic distance (E57 [14]; 333.3 nM): 7.94
- phenotypic distance (E57 [14]; 1000 nM): 8.6
- phenotypic distance (E57 [14]; 3000 nM): 8.14
